For orientation: MIC means the least concentration at which growth counts as inhibited. As a reminder, the MBC is the lowest tested concentration that kills the bacteria rather than only halting them.

SMILES strings stand for the structures. ≈ marks a conversion by molar mass, not a printed value. Like-named read-outs stand apart in the source and are kept apart here.

The values that follow come from US12503476B2, “Ring-fused 2-pyridone compounds, methods for preparation thereof and their use in the treatment and/or prevention of a disease involving gram-positive bacteria” (QURETECH BIO AB, priority 2020, dated 2025).

Assay [1] deals with MRSA. The assay can be described thus: Minimum Inhibitory Concentration (MIC) assay, MRSA. In kind it is cell-based, Methicillin-resistant Staphylococcus aureus. The following applies: no antibiotic, 24 h, 37° C., n.d. = activity not observed at the concentrations tested, read-out: MIC for MRSA. As for the experimental part:
(§1) The cultures (200 μl) were incubated at 37° C. for 24 h. […] The MIC was measured in micromolar concentration, i.e. μM. Objectively, this was determined by measuring the optical density (i.e. OD) of the test cultures at 600 nm using a spectrophotometer. As used herein, OD600 stands for optical density at a wavelength of 600 nm (i.e. 600 nanometers).

In assay [2] the test system is MRSA. The assay can be described thus: Minimum Bactericidal Concentration (MBC) assay, MRSA. The following applies: compound alone, no antibiotic, MIC cultures plated on BHI, second figure of MIC/MBC, n.d. = activity not observed at the concentrations tested; for MBC for MRSA: Table 3; for MBC: Staphylococcus aureus, MRSA, read-out: MBC for MRSA, Table 3.
The subject of a further assay is E. faecalis OG1RF. The assay is described as follows: Combined activity with gentamicin, vancomycin or ampicillin, E. faecalis OG1RF. The assay is classed as cell-based, Enterococcus faecalis. The conditions noted are these: gentamicin 16 μg/ml; for Synergistic effect when combined with gentamicin: 24 h. As for the experimental part:
[…]. The concentrations used in the experiments with E. faecalis OG1RF were 16 μg/ml gentamicin, 1 μg/ml vancomycin or 1 μg/ml ampicillin. In experiments where combinations were tested against MRSA 1369, 0.05 μg/ml gentamicin, 1 μg/ml vancomycin or 16 μg/ml ampicillin was used.
Bacterial cultures (190 μl) at a starting OD=0.001 at OD600 were incubated together with either subinhibitory concentrations of gentamicin/vancomycin/ampicillin or compound alone, or a combination of the two. The cultures (200 μl) were incubated at 37° C. for 24 h. A control sample without compound and gentamicin/vancomycin/ampicillin but containing compound vehicle (DMSO) and gentamicin/vancomycin/ampicillin vehicle (MQ water) was performed the same way. After 24 h, the effect on bacterial growth compared to untreated control samples was determined by measuring optical density at 600 nm with a spectrophotometer.
[…]. MIC/MBC values for the compounds administered alone are also shown for comparison. Unless otherwise stated, the compound was provided in a concentration of 1 μM.

A further assay relates to E. faecalis. The assay can be described thus: Minimum Inhibitory Concentration (MIC) assay, E. faecalis. The assay is classed as cell-based, Enterococcus faecalis. The following applies: for MIC: first figure of MIC/MBC, read-out: MIC for E. faecalis; for Growth inhibition of the pathogen of interest compared to the compound of Example 14 in WO 2018/229141: conclusion from Table 3 (E. faecalis and MRSA). As for the experimental part: as §1

Setting [3] is: Table 3, compound alone, OD600, first figure of MIC/MBC.
The mark [4] stands for this setting: compound 1 μM, n.d. = activity not observed.
Where [5] appears, read: Table 3, compound alone, no antibiotic, 24 h, 37° C., OD600, n.d. = activity not observed at the concentrations tested.
Where [6] appears, read: Staphylococcus aureus, MRSA, Table 3, compound alone, OD600, first figure of MIC/MBC.
Where [7] appears, read: Enterococcus faecalis, 24 h, Table 3, compound alone, no antibiotic, 24 h, 37° C., OD600, n.d. = activity not observed at the concentrations tested.
The mark [8] stands for this setting: subinhibitory compound 1-4 μM, OD600 24 h.

For `O=C(O)C12C[C@@H](c3cccc(C(F)(F)F)c3)C1Sc1c(C3CC3)c(Cc3cccc4ccccc34)cc(=O)n12` (single isomer, unassigned) [Example 2], the MIC is 5 µM (≈ 2.74 µg/mL) with MRSA [1] (setting [3]); 10 µM (≈ 5.48 µg/mL) in the assay with E. faecalis (setting [5]); 10 µM (≈ 5.48 µg/mL) in the assay on E. faecalis (Table 4, compound administered alone, n.d. = activity not observed). For the same compound, the “MBC for MRSA” value against MRSA [2] is 10 µM. In addition, the “OD600 at 24 h when combined with gentamicin” value (“OD600 at 24 h when combined” below) in the assay on E. faecalis OG1RF (compound 1 μM) was “OD600 = 0.1”. The “Synergistic effect when combined with gentamicin” value (from here on “Synergistic effect when combined”) in the assay with E. faecalis OG1RF (setting [4]) is “Yes”.
With `O=C(O)C12C[C@@H](c3ccc(C(F)(F)F)cc3)C1Sc1c(C3CC3)c(Cc3cccc4ccccc34)cc(=O)n12` (some centres unmarked) [Example 8], the MIC in the assay on MRSA [1] (setting [6]) and in the assay with E. faecalis (setting [7]) was 5 µM (≈ 2.74 µg/mL) throughout. Moreover, the MBC in the assay with MRSA [2] was 10 µM (≈ 5.48 µg/mL). Further, the “Growth inhibition of the pathogen of interest compared to the compound of Example 14 in WO 2018/229141” value with E. faecalis (compound alone) is “substantially similar extent or to a higher extent”.
For `O=C(O)C12C[C@@H](c3cccc(Cl)c3)C1Sc1c(C3CC3)c(Cc3cccc4ccccc34)cc(=O)n12` (some centres unmarked) [Example 10], the MIC in the assay on MRSA [1] (setting [3]) came out at 5 µM (≈ 2.57 µg/mL); with E. faecalis (setting [5]), 10 µM (≈ 5.14 µg/mL). Also, in the assay with MRSA [2], the “MBC for MRSA” value came to 10 µM.
As to `O=C(O)C12C[C@H](c3cc(Cl)cc(Cl)c3)C1Sc1c(C3CC3)c(Cc3cccc4ccccc34)cc(=O)n12` (some centres unmarked) [Example 16], the MIC in the assay on MRSA [1] (setting [6]) and in the assay with E. faecalis (setting [7]) was 10 µM (≈ 5.48 µg/mL) in each case.
For the compound `CCCOc1ccc([C@@H]2CC3(C(=O)O)C2Sc2c(C4CC4)c(Cc4cccc5ccccc45)cc(=O)n23)cc1C` (some centres unmarked) [Example 22], the MIC in the assay on MRSA [1] (setting [6]) amounted to 4 µM (≈ 2.21 µg/mL). For the same compound, in the assay on MRSA [2], the MBC came out at 4 µM (≈ 2.21 µg/mL). Further, in the assay with E. faecalis OG1RF (setting [8]), the “E. faecalis activity, combination with gentamicin compared to gentamicin alone, compound alone and comparative example alone” value is given as “much larger extent”; the “E. faecalis activity, combination with gentamicin compared to the combination of the comparative example and gentamicin” value was “much larger extent”. The MIC in the assay on E. faecalis (setting [7]) stood at 4 µM (≈ 2.21 µg/mL). In addition, the “Growth inhibition of the pathogen of interest compared to the compound of Example 14 in WO 2018/229141” value in the assay with E. faecalis (compound alone) is “substantially similar extent or to a higher extent”.
Take `CCCCOc1ccc([C@@H]2CC3(C(=O)O)C2Sc2c(C4CC4)c(Cc4cccc5ccccc45)cc(=O)n23)cc1C` (some centres unmarked) [Example 23]: the MIC with MRSA [1] (setting [6]) came to 3 µM (≈ 1.7 µg/mL); in the assay with E. faecalis (setting [7]), 3 µM (≈ 1.7 µg/mL); in the assay on E. faecalis (Enterococcus faecalis, Table 4, compound administered alone, n.d. = activity not observed), 3 µM (≈ 1.7 µg/mL). In addition, the MBC in the assay on MRSA [2] came to 5 µM (≈ 2.83 µg/mL). Also, the “OD600 at 24 h when combined” value in the assay with E. faecalis OG1RF (compound 1 μM) is given as “OD600 = 0”. In addition, in the assay on E. faecalis OG1RF (setting [4]), the “Synergistic effect when combined” value was “Yes”. The “Growth inhibition of the pathogen of interest compared to the compound of Example 14 in WO 2018/229141” value with E. faecalis (compound alone) is given as “substantially similar extent or to a higher extent”.
`O=C(O)C12C[C@@H](Sc3ccccc3)C1Sc1c(C3CC3)c(Cc3cccc4ccccc34)cc(=O)n12` (some centres unmarked) [Example 27]: the MIC in the assay with MRSA [1] (setting [6]) came to 10 µM (≈ 5.12 µg/mL).
The same measure, in the same setting: to `O=C(O)C12C[C@H](Sc3ccccc3)C1Sc1c(C3CC3)c(Cc3cccc4ccccc34)cc(=O)n12` (some centres unmarked) [Example 28] belongs 25 µM (≈ 12.8 µg/mL).
In the case of `COc1c(Cc2cccc3ccccc23)c(N(C)C)c(=O)n2c1SC1[C@H](c3cccc(C(F)(F)F)c3)CC12C(=O)O` (some centres unmarked) [Example 29], the MIC was 7.5 µM (≈ 4.35 µg/mL) with MRSA [1] (setting [6]) and 25 µM (≈ 14.5 µg/mL) in the assay with E. faecalis (setting [7]). The MBC with MRSA [2] turned out to be 7.5 µM (≈ 4.35 µg/mL).
In the case of `Cc1cc(C)cc([C@@H]2CC3(C(=O)O)C2Sc2c(C4CC4)c(Cc4cccc(Cl)c4Cl)cc(=O)n23)c1` (some centres unmarked) [Example 31], the MIC with MRSA [1] (setting [6]) was determined as 5 µM (≈ 2.63 µg/mL).
`O=C(O)C12C[C@@H](c3c(Cl)cccc3Cl)C1Sc1c(C3CC3)c(Cc3cc4ccccc4s3)cc(=O)n12` (some centres unmarked) [Example 34]: the MIC with MRSA [1] (setting [6]) came out at 5 µM (≈ 2.77 µg/mL).
As for `O=c1cc(Cc2cccc3ccccc23)c(C2CC2)c2n1C(CCB(O)O)CS2` (centres unmarked) [Example 35], the MIC in the assay with MRSA [1] (setting [6]) came out at 50 µM (≈ 20.3 µg/mL). In the assay with E. faecalis OG1RF (compound 25 μM), the “OD600 at 24 h when combined” value is “OD600 = 0” and the “Synergistic effect when combined” value is reported as “Yes”.
As to `O=c1cc(Cc2cccc3ccccc23)c(-c2cccc(C(F)(F)F)c2)c2n1C(CCB(O)O)CS2` (centres unmarked) [Example 37], the MIC in the assay with MRSA [1] (setting [6]) was 50 µM (≈ 25.5 µg/mL). Also, in the assay on E. faecalis OG1RF (compound 10 μM), the “OD600 at 24 h when combined” value is reported as “OD600 = 0” and the “Synergistic effect when combined” value is recorded as “Yes”.
